Experimental data published in patent publication US10760052B2, “Method of inhibiting tau phosphorylation” (priority 2012, dated 2020).
Where two headings read alike, the source gives them in different places.

Molecular target: T1, mu opiate receptor (MOR) (Rattus norvegicus, UniProt P33535)
T1 construct: from tissue; host or cells: striatum (membrane preparation)
Format: biochemical

[1] = [35S]GTPγS binding to Gαo in striatal membranes, compound 0.1 μM
[2] = [35S]GTPγS binding to Gαo in striatal membranes, compound 1 μM
[3] = [35S]GTPγS binding to Gαo in striatal membranes, compound 1 μM plus 1 μM β-funaltrexamine (MOR antagonist)
[4] = 0.1 μM compound, striatal membranes, Series C-2
[5] = 1 μM compound + 1 μM β-FNA (selective MOR antagonist), Series C-2
[6] = 1 μM compound, striatal membranes, Series C-2

T1 sequence (P33535 whole entry): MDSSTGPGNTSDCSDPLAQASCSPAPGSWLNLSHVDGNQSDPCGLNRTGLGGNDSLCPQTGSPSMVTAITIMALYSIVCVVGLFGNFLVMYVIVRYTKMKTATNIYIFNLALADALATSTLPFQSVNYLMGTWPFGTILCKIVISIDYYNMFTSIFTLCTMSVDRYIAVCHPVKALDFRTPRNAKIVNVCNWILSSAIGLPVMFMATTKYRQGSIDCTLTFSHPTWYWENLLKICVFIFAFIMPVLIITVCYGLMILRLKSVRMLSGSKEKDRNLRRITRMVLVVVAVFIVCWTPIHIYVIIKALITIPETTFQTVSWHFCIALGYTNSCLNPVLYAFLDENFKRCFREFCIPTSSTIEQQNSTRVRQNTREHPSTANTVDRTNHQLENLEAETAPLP

SMILES | % DAMGO (0.1 μM) [%] | % DAMGO (1 μM) [%] | % DAMGO + BFNA [%] | Concentration of FLNA-Binding Compound as Agonist 0.1 μM [1] [%] | Concentration of FLNA-Binding Compound as Agonist 1 μM [2] [%] | Concentration of FLNA-Binding Compound as Agonist 1 μM + BFNA [3] [%] | [35S]GTPγS binding, FLNA-Binding Compound as Agonist at 0.1 μM [4] [%] | [35S]GTPγS binding, FLNA-Binding Compound as Agonist at 1 μM + BFNA [5] [%] | [35S]GTPγS binding, FLNA-Binding Compound as Agonist at 1 μM [6] [%] | [35S]GTPγS binding, FLNA-Binding Compound as Agonist at 0.1 μM [%] | [35S]GTPγS binding, FLNA-Binding Compound as Agonist at 1 μM [%] | [35S]GTPγS binding, FLNA-Binding Compound as Agonist at 1 μM + BFNA [%] | Concentration of FLNA-Binding Compound as Agonist 0.1 μM [%] | Concentration of FLNA-Binding Compound as Agonist 1 μM [%] | Concentration of FLNA-Binding Compound as Agonist 1 μM + BFNA [%]
COc1ccc(S(=O)(=O)N2CCCC3(C2)OCCN3S(=O)(=O)c2ccc(OC)cc2)cc1 (stereo not drawn) [Compound C0145M] | 112.2 | 88.7 | 95.3 | 193.0 | 289.2 | 87.0 |  |  |  |  |  |  |  |  | 
C=CCN1CCC2(CC1)OCCN2S(=O)(=O)c1ccc(C(C)=O)cc1 [Compound C0096M] | 105.9 | 130.0 | 577.7 |  |  |  | 186.4 | 127.1 | 328.9 |  |  |  |  |  | 
CC1CCC(C(C)C)C(OCC(O)CN2CCCC2)C1 (stereo not drawn) [Compound A0001] | 63.1 | 78.9 | 83.8 | 94.3 | 181.7 | 22.2 |  |  |  |  |  |  |  |  | 
O=C1CNC2(CCNCC2)N1Cc1ccccc1 [Compound C0114M] | 77.6 | 71.4 | 91.3 |  |  |  |  |  |  | 114.0 | 144.3 | 35.9 |  |  | 
COc1ccc(CCC(=O)CC2c3c(cc4c(c3OC)OCO4)CC[N+]2(C)C)cc1 (stereo not drawn) [Compound B0016] | 99.2 | 79.9 | 109.4 | 167.7 | 213.6 | 72.2 |  |  |  |  |  |  |  |  | 
CC(=O)c1ccc(S(=O)(=O)N2CCC3(CC2)NC(=O)C(Cc2cnc[nH]2)N3S(=O)(=O)c2ccc(C(C)=O)cc2)cc1 (stereo not drawn) [Compound C0084M] | 97.3 | 114.9 | 280.4 | 163.1 | 255.5 | 133.2 |  |  |  |  |  |  |  |  | 
CC1CCC(C(C)C)C(OCC(O)CN2CC(C)OC(C)C2)C1 (stereo not drawn) [Compound A3333] | 88.9 | 101.0 | 136.7 | 170.7 | 328.3 | 65.9 |  |  |  |  |  |  |  |  | 
CS(=O)(=O)c1ccc(S(=O)(=O)N2CCOC23CCN(CC2CC2)CC3)cc1 [Compound C0126M] | 108.5 | 119.3 | 228.4 |  |  |  | 181.8 | 108.5 | 265.3 |  |  |  |  |  | 
COc1ccc(C(=O)CC2c3c(cc4c(c3OC)OCO4)CC[N+]2(C)C)c(F)c1 (stereo not drawn) [Compound B0027] | 82.3 | 100.0 | 41.5 | 140.9 | 266.9 | 21.6 |  |  |  |  |  |  |  |  | 
COc1cc(S(=O)(=O)N2CCC3(CC2)OCCN3S(=O)(=O)c2cc(OC)c(OC)c(OC)c2)cc(OC)c1OC [Compound C0062] | 81.9 | 134.7 | 149.9 | 127.8 | 310.5 | 59.8 |  |  |  |  |  |  |  |  | 
COc1ccc(N2CCN(CC(O)COC3CC(C)CCC3C(C)C)CC2)c(OC)c1 (stereo not drawn) [Compound A0012] | 99.9 | 80.7 | 461.9 | 149.3 | 185.7 | 122.4 |  |  |  |  |  |  |  |  | 
CCN(CC)CC(O)COC1CC(C)CCC1C(C)C (stereo not drawn) [Compound A0032] | 115.6 | 93.4 | 180.0 | 226.9 | 257.8 | 133.0 |  |  |  |  |  |  |  |  | 
COc1ccc(S(=O)(=O)N2CCSC23CCNCC3)cc1 [S-C0027] | 74.2 | 84.4 | 98.1 |  |  |  | 156.2 | 56.2 | 286.8 |  |  |  |  |  | 
Cc1ccccc1S(=O)(=O)N1CCC2(CC1)OCCN2S(=O)(=O)c1ccccc1C [Compound C0015] | 78.5 | 78.9 | 193.0 | 138.7 | 204.7 | 126.8 |  |  |  |  |  |  |  |  | 
OC(COc1ccc(Br)c(F)c1)CN1CCSCC1 (stereo not drawn) [Compound A0059] | 63.5 | 56.4 | 214.8 |  |  |  |  |  |  |  |  |  | 99.2 | 129.9 | 85.7
CC1CCC(C(C)C)C(OCC(O)CN(C(C)C)C(C)C)C1 (stereo not drawn) [Compound A0037] | 90.7 | 85.6 | 141.5 | 177.9 | 236.2 | 104.6 |  |  |  |  |  |  |  |  | 
CC1CCC(C(C)C)C(OCC(O)CN2CCOCC2)C1 (stereo not drawn) [Compound A0004] | 55.2 | 55.6 | 130.9 | 97.4 | 144.2 | 86.0 |  |  |  |  |  |  |  |  | 
CC1CCC(C(C)C)C(OCC(O)CN2CCC2)C1 (stereo not drawn) [Compound A0015] | 64.8 | 56.2 | 120.0 | 110.9 | 150.1 | 62.5 |  |  |  |  |  |  |  |  | 
CN1CCC2(CC1)NC(=O)CN2Cc1ccccc1 [Compound C0104M] | 99.5 | 96.3 | 296.5 |  |  |  | 188.2 | 143.8 | 238.9 |  |  |  |  |  | 
CC1CCC(C(C)C)C(OCC(O)CN2CCN(CCN3CCCCC3)CC2)C1 (stereo not drawn) [Compound A0031] | 100.9 | 116.8 | 573.8 | 178.2 | 297.0 | 150.9 |  |  |  |  |  |  |  |  | 
COc1ccccc1CC(=O)CC1c2c(cc3c(c2OC)OCO3)CC[N+]1(C)C (stereo not drawn) [Compound 5009] | 66.9 | 83.2 | 181.5 | 128.5 | 270.4 | 87.5 |  |  |  |  |  |  |  |  | 
O=C(c1ccc([N+](=O)[O-])cc1)N1CCC2(CC1)OCCN2C(=O)c1ccc([N+](=O)[O-])cc1 [Compound C0032] | 92.8 | 87.3 | 248.2 | 145.4 | 202.0 | 80.9 |  |  |  |  |  |  |  |  | 
CC(=O)c1ccc(S(=O)(=O)N2CC(CN(C)C)OC23CCN(CC2CC2)CC3)cc1 (stereo not drawn) [Compound C0128M] | 104.5 | 115.2 | 131.8 |  |  |  | 197.8 | 63.9 | 286.0 |  |  |  |  |  | 
